Measurements: patent US20230043518A1, “CANCER IMMUNOTHERAPY” (AXELIA ONCOLOGY PTY LTD, priority 2019, published 2023)

System: 4T1.2 (breast cancer)
Test: 4T1.2 breast cancer metastasis model
Format: in vivo, mouse
Conditions: compound 1 combined with anti-PD1 (data not shown)
Description: C57BL/6 or Balb/c Wild-type (WT) mice were purchased from Walter and Eliza Hall Institute for Medical Research or bred in house and maintained at the QIMR Berghofer Medical Research Institute. Mice greater than 8 weeks of age were sex-matched to the appropriate models. In all studies, no mice were excluded based on pre-established criteria and randomization was applied immediately prior to treatment in therapy experiments. Experiments were conducted as approved by the QIMR Berghofer Medical Research Institute Animal Ethics Committee.
Mouse B16F10 (melanoma), MC38 (colon adenocarcinoma) and 4T1.2 (breast cancer) cells were grown in Dulbecco's Modified Eagle Medium (DMEM) supplemented with 10% Fetal Calf Serum (Bovogen), 1% Glutamine (Gibco), and 1% Penicillin/Streptomycin (Gibco). B16F10 and 4T1.2 cells were maintained at 37° C., 5% CO2. MC38 cells were maintained at 37° C., 10% CO2. All cell lines were routinely tested negative for Mycoplasma, but cell line authentication was not routinely performed.
5×10^4 4T1.2 cells were injected into the 4th mammary fat pad in a volume of 50 μl (day 0). On day 12 after injection, primary tumours were surgically removed under isoflurane anesthesia. Mice were injected treated as indicated in figure legends on day 15, 18 and 21 after tumour cell injection. […] For this, macroscopic visible lung metastases were counted. […]

- weight loss: without affecting weight loss
SMILES: CCCCCCCCCCCCCCCC(=O)OCC(CSCC(N)C(=O)N[C@@H](CO)C(=O)NCCOCCOCCOCCOCCOCCOCCOCCOCCOCCOCCOCCOCCC(=O)NCC(N)=O)OC(=O)CCCCCCCCCCCCCCC (stereo partly shown) [compound 1]
